In patent publication US20200163995A1, “PHAR[…] AND USES THEREOF” (Johnpro Biotech Inc., priority 2017, published 2020):
Where two headings read alike, the source gives them in different places.

Assays:
HCT116 cells [1] = experiment: 5-fluorouracil IC50 in HCT116 cells alone or co-treated with sodium butyrate or 5-azacytidine; format: cell-based, Human; conditions: for induction of drug resistance (5-fluorouracil) in cancer cells: HCT116 and WiDr cells, co-treatment with 5-fluorouracil 72 hours, sodium butyrate 0.1 mM, 5-azacytidine 1 μM
Protocol: (§1) Human colon cancer cell line LS174T (ATCC® CL-188™) and WiDr cells (ATCC CCL-218™) were maintained in alpha modification of Eagle's minimum essential medium (α-MEM) containing 1.5 g/L sodium bicarbonate and 10% fetal bovine serum (FBS). HCT116 cells (ATCC® CCL-247™) were cultured in McCoy's 5A medium containing 1.5 g/L sodium bicarbonate, 4.5 g/L glucose, 10 mM HEPES, 1.0 mM sodium pyruvate and 10% FBS. The NK92MI and NK92MI-CEA cells were cultured in α-MEM supplemented with 1.5 g/L sodium bicarbonate, 0.2 mM inositol, 0.02 mM folic acid, 0.01 mM 2-mercaptoethanol, 10% FBS and 12.5% horse serum. All cells were incubated at 37° C. in a humidified incubator with 5% CO2.
(§2) HCT116 and WiDr cells were co-treated with sodium butyrate (0.1 mM) or 5-azacytidine (1 μM) and different concentration of 5-fluorouracil (1.2, 2.4, 4.8, 9.6, and 19.2 μM) for 72 hours.

WiDr cells [2] = experiment: 5-fluorouracil IC50 in WiDr cells alone or co-treated with sodium butyrate or 5-azacytidine; format: cell-based; conditions: Homo sapiens, 72 hours, co-treatment sodium butyrate 0.1 mM or 5-azacytidine 1 μM, three independent experiments, read-out: IC50 of 5-fluorouracil (μM) Mean ± SD
Protocol: as §1, §2

HCT116 cells [3] = tested on: HCT116 cells
Protocol: In this experiment, the cancer cells (i.e., HCT116 or WiDr cells) and the NK cells (i.e., NK92MI or NK92MI-CEA cells) respectively served as the target and effector cells. In brief, the target cells were co-incubated with the effector cells at various effector/target ratios (E/T), including 10:1, 5:1, 1:1, and 0.5:1, in a round-bottom 96-well culture plate. After incubating at 37° C. for 24 hours, 50 μl of the supernatant was isolated and mixed with 50 μl of CYTOTOX 96® Reagent in a flat-bottom 96-well enzymatic assay plate. The mixture was incubated at room temperature for 30 minutes followed by adding 50 μl stop solution (H2SO4) to stop the reaction. The absorbance was measured at 490 nm. The percentage of cytotoxicity for each effector:target cell ratio was calculated by the equation of,
(Experimental−culture medium background)−(Effector cell spontaneous release−culture medium background)−(Target spontaneous release−culture medium background)/(Target maximum release−volume correction control−Target spontaneous release−culture medium background)×100.

[4] = tested on: CEA expression on cancer cells; experiment: Determination of CEA expression on cancer cells by flow cytometry after drug treatment; format: cell-based, Human; conditions: data not shown
Protocol: The expression level of CEA on cancer cells were determined by flow cytometry. Cancer cells were stained with the human CEA-specific antibody followed by the analysis of flow cytometry. The fluorescence intensities of at least 10^5 cells were recorded and analyzed by software. Geometric mean was chosen as mean fluorescence intensity (MFI).
(§3) In this example, cancer cells were first treated with various types of anti-cancer drugs, before been subject to the treatment of NK92MI-CEA cells.

cancer cells = experiment: Resistance of drug-treated cancer cells to chemotherapy and radiation therapy (data not shown); format: cell-based
Source text: as §3

[5] = tested on: serum circulating CEA (cCEA); experiment: Serum circulating CEA (ELISA) in WiDr tumor-bearing SCID mice; format: in vivo; conditions: FIG. 4C, control group 520 pg/ml
WiDr cells [6] = experiment: WiDr xenograft in SCID mice, tumor volume; format: in vivo; conditions: SCID mice with WiDr tumors
Protocol: 2×10^6 WiDr cells were subcutaneously implanted on the back of 9-weeks-old SCID mice. When tumors reached a volume of 100-200 mm^3, the mice were intraperitoneally administered with 200 mg/kg sodium butyrate for 5 consecutive days. Then, the mice were assigned into five groups: (1) control group, in which the mice were orally administrated with PBS every day, and intraperitoneally administrated with PBS every 4 days; (2) NaB group, in which the mice were orally administrated with 5 g/kg sodium butyrate every day, and intraperitoneally administrated with PBS every 4 days; (3) NK92MI group, in which the mice were orally administrated with PBS every day, and intraperitoneally administrated with NK92MI cells every 4 days; (4) NK92MI-CEA group, in which the mice were orally administrated with PBS every day, and intraperitoneally administration with NK92MI-CEA cells every 4 days; and (5) NK92MI-CEA+NaB group, in which the mice were orally administration with 5 g/kg sodium butyrate every day, and intraperitoneally administration with NK92MI-CEA every 4 days. Tumor volume of the mice was measured every 2-3 days, and tumor volumes on were calculated using the formula: length×(width)^2÷2 (*p<0.05). […]
The in vivo anti-tumor activity of NK92MI-CEA cells was evaluated in this example. […]

Row | Structure (SMILES) | IC50 (HCT116 cells [1]; Homo sapiens, HCT-116, HCT116 cells, 72 hours, co-treatment sodium butyrate 0.1 mM or 5-azacytidine 1 μM, three independent experiments, read-out: IC50 of 5-fluorouracil (μM) Mean ± SD) [µM] | IC50 (WiDr cells [2]) [µM] | induction of drug resistance (5-fluorouracil) in cancer cells (HCT116 cells [1]) | enhancement of cytotoxic effect of NK92MI-CEA cells (HCT116 cells [3]) | CEA expression on cancer cells [4] | resistance of cancer cells to chemotherapy and radiation therapy (cancer cells) | concentration of cCEA in the serum of mice [5] [pg/mL] | enhancement of cytotoxic effect of NK92MI-CEA cells (HCT116 cells [3]; HCT116 cells treated with agent, E/T ratio 10:1, 5:1, 1:1 or 0.5:1, versus control and untreated groups, FIGS. 3A, 3B) | tumor growth (FIG. 4A) (WiDr cells [6]; NK cells i.p. every 4 days, sodium butyrate 5 g/kg orally every day) | tumour growth / tumour size (FIG. 4B) (WiDr cells [6]; compared to control group)
1 | O=c1[nH]cc(F)c(=O)[nH]1 [5-fluorouracil] | 4.39 ± 3.1 | 4.67 ± 0.55 |  |  |  |  |  |  |  | 
2 | Nc1ncn([C@@H]2O[C@H](CO)[C@@H](O)[C@H]2O)c(=O)n1 [5-azacytidine] |  |  | induced drug resistance in cancer cells | significantly enhanced cytotoxic effect | significantly increased CEA expression | rendered the cancer cells resistant to the chemotherapy and radiation therapy |  |  |  | 
3 | CCCC(=O)[O-].[Na+] [sodium butyrate] |  |  | induced drug resistance in cancer cells |  | significantly increased CEA expression | rendered the cancer cells resistant to the chemotherapy and radiation therapy | 990 | significantly enhanced cytotoxic effect | obviously enhanced the anti-tumor effect of NK92MI-CEA cells | did not obviously inhibit tumour growth
